In paper PMC6213047, “Design of Antibacterial Agents: Alkyl Dihydroxybenzoates against Xanthomonas citri subsp. citri” (International Journal of Molecular Sciences, 2018):
Read-outs that look alike come from different tables or passages of the source.

Columns and labels:
[1] = Partition coefficient log Po/w by HPLC (OECD 117); assay type: physicochemical; conditions: HPLC method, OECD 117, methanol:water 3:1
Procedure: The analyses were performed with the use of an isocratic flow in methanol: water (3:1) at 1.0 mL min^−1. We injected 20.0 μL and analyses were performed at 254 nm. We used as reference compounds thiourea, phenol, acetophenone, benzoic acid, benzene, toluene, biphenyl, fluoranthene and triphenylamine in order to construct the curve log K × log Po/w. The lipophilicity of alkyl dihydroxybenzoates was determined from their retention times and interpolation in linearity curve log K × log Po/w. We performed the analyses in duplicate.

[2] = system: X. citri subsp. citri strain 306 (IBSBF 1594); experiment: MIC by Resazurin Microtiter Assay (REMA); assay type: cell-based, Xanthomonas citri subsp. citri; conditions: Xanthomonas citri, 12 h
Procedure: The antibacterial potential of carboxylic acids and their esters were compared to copper oxychloride (a commercial active often used to combat citrus canker). Minimal inhibitory concentration (MIC) values were determined by REMA assay, which measures cellular respiratory activity.
(§1) The antibacterial activity of alkyl dihydroxybenzoates and the determination of minimum inhibition concentration (MIC) were performed by the fluorimetric method Resazurin Microtiter Assay (REMA) with some modifications. An overnight culture of X. citri subsp. citri strain 306 (IBSBF 1594) was grown in 20 mL in Nitrogen Yeast Glycerol (NYG) at 29 °C in constant agitation of 180–200 rpm. After 12 h, the Xcc inoculum was dispersed in NYG medium and distributed into a 96 well microtiter plate to a final volume of 100 μL per well (10^5 CFU per well). Stock solutions of tested compounds at 10 mg mL^−1 were prepared in dimethyl sulfoxide (DMSO) and dispersed in NYG medium to obtain 1% DMSO and the final compound concentration range of 0.78–100 μg mL^−1. The negative control was constituted of 100 μL culture medium. In addition, the copper oxychloride was tested as a comparison to alkyl dihydroxybenzoates and kanamycin (20 μg mL^−1), which was used as a control antibiotic. The plate was subsequently incubated at 29 °C for 12 h, and 15 μg mL^−1 freshly prepared resazurin solution in water was added to each well, and the plate was incubated for 2 h. The fluorescence was determined on a Synergy H1 (BioTek, Winooski, VT, USA) microplate reader using the excitation and emission filters at wavelengths of 530 and 590 nm respectively. After the REMA assay, the minimum bactericidal concentration (CBM) assay was performed using a 96-pin stainless steel plate replicator, accurately transferring the wells from the REMA plate to Petri dishes Petri dishes were incubated in oven B.O.D. at 29 °C for 24 to 48 h. The experiments were performed in triplicate.

[3] = system: X. citri subsp. citri strain 306 (IBSBF 1594); experiment: MBC, REMA plates replicated to Petri dishes; assay type: cell-based, Xanthomonas citri subsp. citri; conditions: Xanthomonas citri
Procedure: The minimal bactericidal concentration (MBC) was determined by observing the bacterial growth in Petri dishes transferred from the REMA plates.
as §1

[4] = REMA, NYG medium, 29 °C, read-out: MIC
[5] = REMA, NYG medium, 29 °C, read-out: MIC in μM
[6] = Petri dishes from REMA plates, 29 °C, 24 to 48 h, read-out: MBC

CCCCCCCCOC(=O)c1ccc(O)c(O)c1 [Compound 29]
chromatographic logP [1]: 4.9
MIC [2, 4]: 31.2 µg/mL
MIC [2, 5]: 117 µM
MBC [3, 6]: 50 µg/mL

CC(C)OC(=O)c1ccc(O)c(O)c1 [Compound 33]
chromatographic logP [1]: 1.4
MIC [2, 4]: > 100 µg/mL
MIC [2, 5]: > 510 µM
MBC [3, 6]: > 100 µg/mL

O=C(OC1CCCC1)c1ccc(O)cc1O [Compound 10]
chromatographic logP [1]: 2.2
MIC [2, 4]: > 100 µg/mL
MIC [2, 5]: > 450 µM
MBC [3, 6]: > 100 µg/mL

CCCCCCCCCOC(=O)c1ccc(O)c(O)c1 [Compound 30]
chromatographic logP [1]: 5.5
MIC [2, 4]: 26.7 µg/mL
MIC [2, 5]: 95 µM
MBC [3, 6]: 50 µg/mL

CCCCCCCCOC(=O)c1cc(O)ccc1O [Compound 17]
chromatographic logP [1]: 5.2
MIC [2, 4]: > 100 µg/mL
MIC [2, 5]: > 375 µM
MBC [3, 6]: > 100 µg/mL

O=C(OCCc1ccccc1)c1cc(O)ccc1O [Compound 24]
chromatographic logP [1]: 3.1
MIC [2, 4]: 59.7 µg/mL
MIC [2, 5]: 231 µM
MBC [3, 6]: 100 µg/mL

CCCCCCCCOC(=O)c1ccc(O)cc1O [Compound 5]
chromatographic logP [1]: 6.1
MIC [2, 4]: > 100 µg/mL
MIC [2, 5]: > 375 µM
MBC [3, 6]: > 100 µg/mL

CCCCCCOC(=O)c1ccc(O)cc1O [Compound 3]
chromatographic logP [1]: 5
MIC [2, 5]: 84 µM
MBC [3, 6]: 50 µg/mL

O=C(OC1CCCC1)c1ccc(O)c(O)c1 [Compound 34]
chromatographic logP [1]: 2.2
MIC [2, 4]: > 100 µg/mL
MIC [2, 5]: > 450 µM
MBC [3, 6]: > 100 µg/mL

CCCCCCCCCOC(=O)c1cc(O)ccc1O [Compound 18]
chromatographic logP [1]: 5.7
MIC [2, 4]: > 100 µg/mL
MIC [2, 5]: > 357 µM
MBC [3, 6]: > 100 µg/mL

CCOC(=O)c1cc(O)ccc1O [Compound 13]
chromatographic logP [1]: 2.4
MIC [2, 4]: > 100 µg/mL
MIC [2, 5]: > 549 µM
MBC [3, 6]: > 100 µg/mL

O=C(OCCc1ccccc1)c1ccc(O)c(O)c1 [Compound 36]
chromatographic logP [1]: 2.4
MIC [2, 4]: < 100 µg/mL
MIC [2, 5]: 345 µM
MBC [3, 6]: 100 µg/mL

CCCCOC(=O)c1ccc(O)cc1O [Compound 2]
chromatographic logP [1]: 3.9
MIC [2, 5]: 189 µM
MBC [3, 6]: 50 µg/mL

CCCCCCOC(=O)c1ccc(O)c(O)c1 [Compound 27]
chromatographic logP [1]: 3.7
MIC [2, 4]: 44.4 µg/mL
MIC [2, 5]: 186 µM
MBC [3, 6]: 50 µg/mL

O=C(O)c1ccc(O)cc1O [2,4 DHB acid, 2,4 dihydroxybenzoic acid, reference compound]
chromatographic logP [1]: 2.6
MIC [2, 4]: > 100 µg/mL
MIC [2, 5]: > 648 µM
MBC [3, 6]: > 100 µg/mL

CCCCCCCCCCOC(=O)c1cc(O)ccc1O [Compound 19]
chromatographic logP [1]: 6.3
MIC [2, 4]: > 100 µg/mL
MIC [2, 5]: > 340 µM
MBC [3, 6]: > 100 µg/mL

CCCCCCCCCOC(=O)c1ccc(O)cc1O [Compound 6]
chromatographic logP [1]: 6.2
MIC [2, 4]: > 100 µg/mL
MIC [2, 5]: > 356 µM
MBC [3, 6]: > 100 µg/mL

O=C(OC1CCCCC1)c1cc(O)ccc1O [Compound 23]
chromatographic logP [1]: 3.5
MIC [2, 4]: 90.4 µg/mL
MIC [2, 5]: 382 µM
MBC [3, 6]: 100 µg/mL

CCOC(=O)c1ccc(O)cc1O [Compound 1]
chromatographic logP [1]: 2.8
MIC [2, 4]: > 100 µg/mL
MIC [2, 5]: > 548 µM
MBC [3, 6]: > 100 µg/mL

CCCCOC(=O)c1ccc(O)c(O)c1 [Compound 26]
chromatographic logP [1]: 2.6
MIC [2, 4]: > 100 µg/mL
MIC [2, 5]: > 475 µM
MBC [3, 6]: > 100 µg/mL

CC(C)OC(=O)c1ccc(O)cc1O [Compound 9]
chromatographic logP [1]: 2.6
MIC [2, 4]: > 100 µg/mL
MIC [2, 5]: > 510 µM
MBC [3, 6]: > 100 µg/mL

O=C(OC1CCCC1)c1cc(O)ccc1O [Compound 22]
chromatographic logP [1]: 3
MIC [2, 4]: 83.5 µg/mL
MIC [2, 5]: 375 µM
MBC [3, 6]: 100 µg/mL

O=C(OC1CCCCC1)c1ccc(O)c(O)c1 [Compound 35]
chromatographic logP [1]: 2.7
MIC [2, 4]: > 100 µg/mL
MIC [2, 5]: > 423 µM
MBC [3, 6]: > 100 µg/mL

CCCCCCCCCCOC(=O)c1ccc(O)c(O)c1 [Compound 31]
MIC ([2]; REMA, NYG medium, 29 °C): > 100 µg/mL
MIC ([2]; read-out: MIC in μM, REMA, NYG medium, 29 °C, 12 h): > 340 µM
MBC [3]: 100 µg/mL

O=C(OC1CCCCC1)c1ccc(O)cc1O [Compound 11]
chromatographic logP [1]: 4
MIC [2, 5]: 171 µM
MBC [3, 6]: 100 µg/mL

CCCCCCCCCCCCOC(=O)c1ccc(O)cc1O [Compound 8, dodecyl 2,4 dihydroxybenzoate]
chromatographic logP [1]: 7
MIC [2, 4]: > 100 µg/mL
MIC [2, 5]: > 310 µM
MBC [3, 6]: > 100 µg/mL

CC(C)OC(=O)c1cc(O)ccc1O [Compound 21]
chromatographic logP [1]: 2.2
MIC [2, 4]: > 100 µg/mL
MIC [2, 5]: > 510 µM
MBC [3, 6]: > 100 µg/mL

CCCCCCCCCCOC(=O)c1ccc(O)cc1O [Compound 7]
chromatographic logP [1]: 6.9
MIC [2, 4]: > 100 µg/mL
MIC [2, 5]: > 340 µM
MBC [3, 6]: > 100 µg/mL

CCCCCCCCCCCCOC(=O)c1ccc(O)c(O)c1 [Compound 32]
chromatographic logP [1]: 6.9
MIC [2, 4]: > 100 µg/mL
MIC [2, 5]: > 310 µM
MBC [3, 6]: > 100 µg/mL

O=C(O)c1cc(O)ccc1O [2,5 DHB acid, 2,5 dihydroxybenzoic acid, reference compound]
chromatographic logP [1]: 2.8
MIC [2, 4]: > 100 µg/mL
MIC [2, 5]: > 648 µM
MBC [3, 6]: > 100 µg/mL

CCCCOC(=O)c1cc(O)ccc1O [Compound 14]
chromatographic logP [1]: 3.4
MIC [2, 4]: > 100 µg/mL
MIC [2, 5]: > 475 µM
MBC [3, 6]: > 100 µg/mL

CCCCCCCCCCCCOC(=O)c1cc(O)ccc1O [Compound 20]
chromatographic logP [1]: 6.8
MIC [2, 4]: > 100 µg/mL
MIC [2, 5]: > 310 µM
MBC [3, 6]: > 100 µg/mL

CCCCCCOC(=O)c1cc(O)ccc1O [Compound 15]
chromatographic logP [1]: 4.5
MIC [2, 5]: 140 µM
MBC [3, 6]: 50 µg/mL

CCOC(=O)c1ccc(O)c(O)c1 [Compound 25]
chromatographic logP [1]: 1.7
MIC [2, 4]: > 100 µg/mL
MIC [2, 5]: > 549 µM
MBC [3, 6]: > 100 µg/mL

O=C(O)c1ccc(O)c(O)c1 [3,4 DHB acid, 3,4 dihydroxybenzoic acid, reference compound]
chromatographic logP [1]: 0.8
MIC [2, 4]: > 100 µg/mL
MIC [2, 5]: > 648 µM
MBC [3, 6]: > 100 µg/mL
